Source: PubChem BioAssay AID330 (DTP/NCI, 2004)
Values joined by “and” are separate entries in the source; they are usually repeats but may differ in a detail not shown here. Equal values may be shown once. Inconclusive results and toxic doses are left out.

Tested on: P388 leukemia ip, CD2F1 mice, survival T/C
Experiment: NCI In Vivo Anticancer Drug Screen. Data for tumor model P388 Leukemia (intraperitoneal) in CD2F1 (CDF1) mice
Conditions: endpoint: median survival time, higher = longer survival
In short: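 Mice carrying the transplanted tumor received test compound or vehicle. Survival was recorded in each group, and the value is the treated-group measurement divided by that of the vehicle-treated control group.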

[1] = dose: 50.0 mg/kg/injection, schedule: Q01DX005 (ip), vehicle: saline with Tween-80
[2] = dose: 100.0 mg/kg/injection, schedule: Q01DX005 (ip), vehicle: saline with Tween-80
[3] = dose: 200.0 mg/kg/injection, schedule: Q01DX005 (ip), vehicle: saline with Tween-80
[4] = dose: 50.0 mg/kg/injection, schedule: Q01DX009 (ip), vehicle: Klucel (hydroxypropylcellulose) (HPC)
[5] = dose: 100.0 mg/kg/injection, schedule: Q01DX009 (ip), vehicle: Klucel (hydroxypropylcellulose) (HPC)
[6] = dose: 200.0 mg/kg/injection, schedule: Q01DX009 (ip), vehicle: Klucel (hydroxypropylcellulose) (HPC)
[7] = dose: 60.0 mg/kg/injection, schedule: Q01DX005 (ip), vehicle: saline with Tween-80
[8] = dose: 120.0 mg/kg/injection, schedule: Q01DX005 (ip), vehicle: saline with Tween-80
[9] = dose: 240.0 mg/kg/injection, schedule: Q01DX005 (ip), vehicle: saline with Tween-80
[10] = dose: 25.0 mg/kg/injection, schedule: Q01DX009 (ip), vehicle: saline with Tween-80
[11] = dose: 100.0 mg/kg/injection, schedule: Q01DX009 (ip), vehicle: saline with Tween-80
[12] = dose: 200.0 mg/kg/injection, schedule: Q01DX009 (ip), vehicle: saline with Tween-80
[13] = dose: 50.0 mg/kg/injection, schedule: Q01DX009 (ip), vehicle: saline
[14] = dose: 100.0 mg/kg/injection, schedule: Q01DX009 (ip), vehicle: saline
[15] = dose: 200.0 mg/kg/injection, schedule: Q01DX009 (ip), vehicle: saline
[16] = dose: 100.0 mg/kg/injection, schedule: Q04DX003 (ip), vehicle: saline with Tween-80
[17] = dose: 200.0 mg/kg/injection, schedule: Q04DX003 (ip), vehicle: saline with Tween-80
[18] = dose: 400.0 mg/kg/injection, schedule: Q04DX003 (ip), vehicle: saline with Tween-80

SMILES: C[C@@](O)(/C=C/[C@H]1CC=CC(=O)O1)[C@@H](C[C@@H](O)\C=C/C=C\C=C\CO)OP(=O)(O)O
- T/C (dose: 12.5 mg/kg/injection, schedule: Q01DX005 (ip), vehicle: other): 150 % of control and 157 % of control
- T/C (dose: 25.0 mg/kg/injection, schedule: Q01DX005 (ip), vehicle: other): 174 % of control

SMILES: CN(C)c1ccc(C(Nc2ccc(S(=O)(=O)Nc3ccccc3)cc2)c2ccc(N(C)C)cc2)cc1
- T/C (dose: 100.0 mg/kg/injection, schedule: Q04DX003 (ip), vehicle: Klucel (hydroxypropylcellulose) (HPC)): 105 % of control
- T/C (dose: 200.0 mg/kg/injection, schedule: Q04DX003 (ip), vehicle: Klucel (hydroxypropylcellulose) (HPC)): 110 % of control
- T/C (dose: 400.0 mg/kg/injection, schedule: Q04DX003 (ip), vehicle: Klucel (hydroxypropylcellulose) (HPC)): 105 % of control

SMILES: O=C1OC(=O)C2C3C=CC(O3)C12 (centres undefined)
- T/C (dose: 15.0 mg/kg/injection, schedule: Q01DX005 (ip), vehicle: saline): 100 % of control
- T/C (dose: 30.0 mg/kg/injection, schedule: Q01DX005 (ip), vehicle: saline): 91 % of control
- T/C (dose: 60.0 mg/kg/injection, schedule: Q01DX005 (ip), vehicle: saline): 87 % of control and 89 % of control

SMILES: CCCN(C)C12CN3CN(CN(C3)C1)C2
- T/C (dose: 100.0 mg/kg/injection, schedule: Q04DX003 (ip), vehicle: saline): 106 % of control
- T/C (dose: 200.0 mg/kg/injection, schedule: Q04DX003 (ip), vehicle: saline): 95 % of control
- T/C (dose: 400.0 mg/kg/injection, schedule: Q04DX003 (ip), vehicle: saline): 100 % of control

SMILES: Cc1c(Cl)cccc1Nc1ncccc1C(=O)OCC(O)CO (centres undefined)
- T/C [1]: 96 % of control
- T/C [2]: 98 % of control
- T/C [3]: 95 % of control

SMILES: Cc1ccc2nc(NC(=S)NCCCCNC(=S)Nc3ccc4cc(C)ccc4n3)ccc2c1
- T/C [4]: 98 % of control
- T/C [5]: 94 % of control
- T/C [6]: 89 % of control

SMILES: CC[C@@H]1O[C@H]2O[C@@H](/C=C/C=C/C=C/c3oc(=O)cc(OC)c3C)[C@@H](O)[C@@]2(C)[C@]1(C)O
- T/C (dose: 0.5 mg/kg/injection, schedule: Q01DX009 (ip), vehicle: Klucel (hydroxypropylcellulose) (HPC)): 107 % of control
- T/C (dose: 1.0 mg/kg/injection, schedule: Q01DX009 (ip), vehicle: Klucel (hydroxypropylcellulose) (HPC)): 106 % of control
- T/C (dose: 2.0 mg/kg/injection, schedule: Q01DX009 (ip), vehicle: Klucel (hydroxypropylcellulose) (HPC)): 98 % of control

SMILES: CC(N)C(=O)Nc1ccc(C(=O)O)c(O)c1 (centres undefined)
- T/C [7]: 100 % of control
- T/C [8]: 102 % of control
- T/C [9]: 93 % of control

SMILES: O=C(C/C(=N\C(=S)Nc1cc(C(F)(F)F)ccc1Cl)NO)N1CCCC1
- T/C [10]: 101 % of control and 116 % of control
- T/C (dose: 50.0 mg/kg/injection, schedule: Q01DX009 (ip), vehicle: saline with Tween-80): 105 % of control and 112 % of control
- T/C [11]: 117 % of control
- T/C [12]: 117 % of control

SMILES: CC1N(C)c2cc([N+](=O)[O-])ccc2C1(C)C (centres undefined)
- T/C [1]: 95 % of control
- T/C [2]: 100 % of control
- T/C [3]: 87 % of control

SMILES: CC(=O)Nc1ccc(S(=O)(=O)Oc2noc3ccc(Br)cc23)cc1
- T/C (dose: 50.0 mg/kg/injection, schedule: Q01DX005 (ip), vehicle: Klucel (hydroxypropylcellulose) (HPC)): 98 % of control
- T/C (dose: 100.0 mg/kg/injection, schedule: Q01DX005 (ip), vehicle: Klucel (hydroxypropylcellulose) (HPC)): 97 % of control
- T/C (dose: 200.0 mg/kg/injection, schedule: Q01DX005 (ip), vehicle: Klucel (hydroxypropylcellulose) (HPC)): 90 % of control

SMILES: OCC12COCN1COC2
- T/C [13]: 106 % of control and 92 % of control
- T/C [14]: 106 % of control and 111 % of control
- T/C [15]: 108 % of control and 118 % of control
- T/C (dose: 400.0 mg/kg/injection, schedule: Q01DX009 (ip), vehicle: saline): 123 % of control

SMILES: CN(C)c1cccc2c(Cl)c(Cl)c3cccc(N(C)C)c3c12
- T/C [7]: 98 % of control
- T/C [8]: 100 % of control
- T/C [9]: 99 % of control

SMILES: CC1C(=O)OC2C1CCC1(C)C=C(Cl)C(=O)C3(C)OC213 (centres undefined)
- T/C (dose: 50.0 mg/kg/injection, schedule: Q04DX002 (ip), vehicle: saline with Tween-80): 100 % of control
- T/C (dose: 100.0 mg/kg/injection, schedule: Q04DX002 (ip), vehicle: saline with Tween-80): 100 % of control
- T/C (dose: 200.0 mg/kg/injection, schedule: Q04DX002 (ip), vehicle: saline with Tween-80): 100 % of control

SMILES: CCSc1nc2ccc(NC(=O)/C=C/C(=O)O)cc2s1
- T/C [4]: 103 % of control
- T/C [5]: 90 % of control
- T/C [6]: 95 % of control

SMILES: CSCCC(NC(=O)CN(C)C(=O)OCc1ccccc1)C(=O)O (centres undefined)
- T/C [1]: 100 % of control
- T/C [2]: 100 % of control

SMILES: CCn1c(Cl)c(/C=N\Nc2cccc([N+](=O)[O-])c2)c2ccccc21
- T/C (dose: 25.0 mg/kg/injection, schedule: Q01DX001 (ip), vehicle: Klucel (hydroxypropylcellulose) (HPC)): 93 % of control
- T/C (dose: 50.0 mg/kg/injection, schedule: Q01DX001 (ip), vehicle: Klucel (hydroxypropylcellulose) (HPC)): 87 % of control
- T/C (dose: 100.0 mg/kg/injection, schedule: Q01DX001 (ip), vehicle: Klucel (hydroxypropylcellulose) (HPC)): 86 % of control and 93 % of control

SMILES: CC(C)(C)c1cccc(C2(C)C(=O)c3ccccc3C2=O)c1
- T/C (dose: 100.0 mg/kg/injection, schedule: Q04DX002 (ip), vehicle: saline): 102 % of control
- T/C (dose: 200.0 mg/kg/injection, schedule: Q04DX002 (ip), vehicle: saline): 101 % of control
- T/C (dose: 400.0 mg/kg/injection, schedule: Q04DX002 (ip), vehicle: saline): 100 % of control

SMILES: CCOC(=O)C(Cl)(SC(Cl)(S(=O)(=O)c1ccccc1)S(=O)(=O)c1ccccc1)C(=O)OCC
- T/C [4]: 102 % of control
- T/C [5]: 99 % of control
- T/C [6]: 97 % of control

SMILES: ONc1ccc2c(c1)C1C(C3C2C2(Cl)C(Cl)=C(Cl)C3(Cl)C2(Cl)Cl)C2(Cl)C(Cl)=C(Cl)C1(Cl)C2(Cl)Cl (centres undefined)
- T/C [13]: 96 % of control
- T/C [14]: 99 % of control
- T/C [15]: 92 % of control

SMILES: O=C(NCCO)c1ccc(O)cc1O
- T/C (dose: 60.0 mg/kg/injection, schedule: Q01DX005 (ip), vehicle: Klucel (hydroxypropylcellulose) (HPC)): 116 % of control
- T/C (dose: 120.0 mg/kg/injection, schedule: Q01DX005 (ip), vehicle: Klucel (hydroxypropylcellulose) (HPC)): 120 % of control
- T/C (dose: 240.0 mg/kg/injection, schedule: Q01DX005 (ip), vehicle: Klucel (hydroxypropylcellulose) (HPC)): 120 % of control

SMILES: CCc1c(COC(=O)NC)c(COC(=O)NC)cc2c1[nH]c1ccccc12
- T/C [1]: 88 % of control
- T/C [2]: 88 % of control
- T/C [3]: 89 % of control

SMILES: Cc1ccc(C(=O)c2ccccc2C(=O)O)cc1N
- T/C [11]: 100 % of control
- T/C [16]: 100 % of control
- T/C [12]: 100 % of control
- T/C [17]: 100 % of control
- T/C (dose: 400.0 mg/kg/injection, schedule: Q01DX009 (ip), vehicle: saline with Tween-80): 100 % of control
- T/C [18]: 108 % of control

SMILES: Cc1nn(C(=S)S)c(C)c1N=Nc1cccc(Cl)c1Cl
- T/C (dose: 100.0 mg/kg/injection, schedule: Q01DX001 (ip), vehicle: saline with Tween-80): 91 % of control
- T/C (dose: 200.0 mg/kg/injection, schedule: Q01DX001 (ip), vehicle: saline with Tween-80): 94 % of control
- T/C (dose: 400.0 mg/kg/injection, schedule: Q01DX001 (ip), vehicle: saline with Tween-80): 108 % of control

SMILES: NC(=O)Oc1ccccc1
- T/C [16]: 100 % of control
- T/C [17]: 104 % of control
- T/C [18]: 100 % of control

SMILES: CCN(CC)Cc1cc(C(CC(=O)c2ccccc2)S(=O)(=O)c2ccc(C)cc2)ccc1O (centres undefined)
- T/C (dose: 12.5 mg/kg/injection, schedule: Q01DX009 (ip), vehicle: saline with Tween-80): 88 % of control
- T/C [10]: 89 % of control
- T/C [13]: 93 % of control

SMILES: CN(C)C(=O)NC1CCC2CCCCC2C1 (centres undefined)
- T/C (dose: 100.0 mg/kg/injection, schedule: Q01DX001 (ip), vehicle: saline): 100 % of control
- T/C (dose: 200.0 mg/kg/injection, schedule: Q01DX001 (ip), vehicle: saline): 99 % of control
- T/C (dose: 400.0 mg/kg/injection, schedule: Q01DX001 (ip), vehicle: saline): 98 % of control
